Laboratory results as given in ChEMBL document CHEMBL3046019, “Prenylated xanthones: antiproliferative effects and enhancement of the growth inhibitory action of 4-hydroxytamoxifen in estrogen receptor-positive breast cancer cell line” (2012).
Active and inactive are the calls of the source. The calls are words filed in the database; no cut-off is given here.

Columns and labels:
[1] = tested on: MCF7; experiment: Antiproliferative activity against estrogen receptor positive Homo sapiens (human) MCF7 cells in steroid free medium after 48 hr by SRB assay in presence of ER antagonist 4-OHT; type: functional, cell-based
[2] = tested on: MCF7; experiment: Antiproliferative activity against estrogen receptor positive Homo sapiens (human) MCF7 cells in steroid free medium after 48 hr by SRB assay; type: functional, cell-based
[3] = tested on: MCF7; experiment: Antiproliferative activity against estrogen receptor positive Homo sapiens (human) MCF7 cells in complete medium after 48 hr by SRB assay; type: functional, cell-based
[4] = tested on: MDA-MB-231; experiment: Antiproliferative activity against estrogen receptor negative Homo sapiens (human) MDA-MB-231 cells after 48 hr by SRB assay; type: functional, cell-based
[5] = tested on: MCF7; experiment: Antiproliferative activity against estrogen receptor positive Homo sapiens (human) MCF7 cells after 48 hr by SRB assay; type: functional, cell-based
[6] = tested on: MDA-MB-231; experiment: Antiproliferative activity against estrogen receptor negative Homo sapiens (human) MDA-MB-231 cells at 0.05 uM after 48 hr by SRB assay; type: functional, cell-based
[7] = tested on: MCF7; experiment: Antiproliferative activity against estrogen receptor positive Homo sapiens (human) MCF7 cells at 0.05 uM after 48 hr by SRB assay; type: functional, cell-based
[8] = tested on: NCI-H460; experiment: Growth inhibition of Homo sapiens (human) NCI-H460 cells after 48 hr by [3H]-thymidine incorporation assay; type: functional
[9] = tested on: MDA-MB-231; experiment: Growth inhibition of estrogen receptor negative Homo sapiens (human) MDA-MB-231 cells after 48 hr by [3H]-thymidine incorporation assay; type: functional
[10] = tested on: MCF7; experiment: Growth inhibition of estrogen receptor positive Homo sapiens (human) MCF7 cells after 48 hr by [3H]-thymidine incorporation assay; type: functional

Row | GI50 [8] | GI50 [9] | GI50 [10] | SMILES | Activity [1] | Activity [2] | Activity [3] | Activity [4] | Activity [5] | Activity [6] | Activity [7]
1 | 22 µM | 29 µM | 5.3 µM | CC1(C)CCc2cc3c(=O)c4ccccc4oc3c(O)c2O1 [DIHYDRO-12-HYDROXY-2,2-DIMETHYL-2H,6H-PYRANO[3,2-B]XANTHEN-6-ONE] | Active | Dose-dependent effect | Dose-dependent effect | Dose-dependent effect | Dose-dependent effect | Active | Active
2 | 30.7 µM | 39 µM | 21.8 µM | CC(C)=CCOc1ccc2c(=O)c3ccccc3oc2c1OCC=C(C)C |  |  |  |  |  |  | 
3 | 20.4 µM | 29.1 µM | 14.2 µM | CC(C)=CCOc1ccc2c(=O)c3ccccc3oc2c1O |  | Dose-dependent effect | Dose-dependent effect | Dose-dependent effect | Dose-dependent effect | Active | Active
